Reference: ChEMBL document CHEMBL1141045, “Cyclic sulfamide gamma-secretase inhibitors” (Bioorg Med Chem Lett, 2005)

Legend:
Rattus norvegicus = test: (§1) AUC after administration of 30 (mpk) to rat through oral route; format: ADME, organism-based, Plasma; settings: in vivo, 30 mg/kg
Gamma-secretase = test: Inhibitory concentration against gamma-secretase in whole cell SH-SY5Y assay; format: protein-complex assay
[1] = as §1; format: ADME, organism-based, Plasma; settings: plasma, 30 mg/kg
[2] = AUC after administration of 1 (mpk) to rat through oral route; format: ADME, organism-based; settings: plasma, 1 mg/kg
[3] = AUC after administration of 4 (mpk) to rat through oral route; format: ADME, organism-based; settings: plasma, 4 mg/kg

Row | IC50 (Gamma-secretase) [nM] | Structure (SMILES) | further results
1 |  | O=S(=O)(N[C@H]1[C@@H]2CC[C@H]1Cc1ccccc1C2)c1ccc(Cl)s1 | AUC (Rattus norvegicus): 0.01 uMh
2 | 134 | O=S(=O)(N[C@H]1[C@@H]2CC[C@H]1Cc1ccccc1C2)NC(F)(F)F | 
3 | 132 | CCCNS(=O)(=O)N[C@H]1[C@@H]2CC[C@H]1Cc1ccccc1C2 | AUC [1]: 0.6 µM·h
4 | 3.4 | O=S1(=O)N[C@@]2(CN1CC(F)(F)F)[C@@H]1CC[C@H]2Cc2ccc(/C=C/CN3CCOCC3)cc2C1 | 
5 | 138 | CCCN1C[C@]2(NS1(=O)=O)[C@@H]1CC[C@H]2Cc2ccccc2C1 | AUC [2]: 0.1 µM·h
6 | 19 | CCCN1C[C@]2(NS1(=O)=O)[C@@H]1CC[C@H]2Cc2ccc(/C=C/CN3CCOCC3)cc2C1 | AUC [2]: 1.19 µM·h
7 | 0.5 | O=S1(=O)N[C@@]2(CN1CC(F)(F)F)[C@@H]1CC[C@H]2Cc2ccc(/C=C/CN3CCC(C(F)(F)F)CC3)cc2C1 | 
8 | 394 | CCNS(=O)(=O)N[C@H]1[C@@H]2CC[C@H]1Cc1ccccc1C2 | 
9 | 1 | O=S(=O)(NC1[C@@H]2CC[C@H]1Cc1ccc(/C=C/CN3CCOCC3)cc1C2)c1ccc(Cl)s1 (some centres not stated) | AUC [3]: 0.38 µM·h
10 | 766 | CCCCNS(=O)(=O)N[C@H]1[C@@H]2CC[C@H]1Cc1ccccc1C2 | 
11 | 18 | CC1CCN(C/C=C/c2ccc3c(c2)C[C@H]2CC[C@@H](C3)[C@]23CN(CC(F)(F)F)S(=O)(=O)N3)CC1 | 
12 | 429 | CCN1C[C@]2(NS1(=O)=O)[C@@H]1CC[C@H]2Cc2ccccc2C1 | 
13 | 21 | CN1CCN(C/C=C/c2ccc3c(c2)C[C@H]2CC[C@@H](C3)[C@]23CN(CC(F)(F)F)S(=O)(=O)N3)CC1=O | 
14 | 250 | O=S1(=O)N[C@@]2(CN1CC(F)(F)F)[C@@H]1CC[C@H]2Cc2ccc(/C=C/CN3CCCCC3)cc2C1 | 
15 | 17 | O=S1(=O)N[C@@]2(CN1C(F)(F)F)[C@@H]1CC[C@H]2Cc2ccccc2C1 | 
16 | 122 | CCCCN1C[C@]2(NS1(=O)=O)[C@@H]1CC[C@H]2Cc2ccccc2C1 | 
17 | 2 | CCCN1C[C@]2(NS1(=O)=O)[C@@H]1CC[C@H]2Cc2ccc(/C=C/CN3CCC(C(F)(F)F)CC3)cc2C1 | 
18 | 4 | CC(=O)N1CCN(C/C=C/c2ccc3c(c2)C[C@H]2CC[C@@H](C3)[C@]23CN(CC(F)(F)F)S(=O)(=O)N3)CC1 | 
